Experimental data published in PubChem BioAssay (NCI).
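Five compound concentrations were applied to cells in 96-well plates for 48 hours; endpoints were derived by simple linear interpolation of the resulting dose-response curve. TGI is the concentration that stops growth completely.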

Tests used:
Test in all cases: inhibition of tumour cell growth, NCI panel, 48 h
A498 renal = test system: A498 renal
CCRF-CEM leukemia = test system: CCRF-CEM leukemia
EKVX NSCLC = test system: EKVX NSCLC
HCC-2998 colon = test system: HCC-2998 colon
LOX IMVI melanoma = test system: LOX IMVI melanoma
MCF7 breast = test system: MCF7 breast
MDA-MB-231 breast = test system: MDA-MB-231 breast
NCI-H522 lung = test system: NCI-H522 lung
RPMI-8226 leukemia = test system: RPMI-8226 leukemia
SK-MEL-2 melanoma = test system: SK-MEL-2 melanoma
SK-OV-3 ovarian = test system: SK-OV-3 ovarian
SW-620 colon = test system: SW-620 colon
T-47D breast = test system: T-47D breast
UACC-257 melanoma = test system: UACC-257 melanoma
UO-31 renal = test system: UO-31 renal

SMILES	TGI (A498 renal)	TGI (CCRF-CEM leukemia)	TGI (EKVX NSCLC)	TGI (HCC-2998 colon)	TGI (LOX IMVI melanoma)	TGI (MCF7 breast)	TGI (MDA-MB-231 breast)	TGI (NCI-H522 lung)	TGI (RPMI-8226 leukemia)	TGI (SK-MEL-2 melanoma)	TGI (SK-OV-3 ovarian)	TGI (SW-620 colon)	TGI (T-47D breast)	TGI (UACC-257 melanoma)	TGI (UO-31 renal)
CC(=O)CCC[C@@H](C)[C@@H]1O[C@H]([C@@]2(C)CCC(=O)O2)C[C@H]2C(CSc3ccccc3)C(=O)O[C@@H]12 (some centres not stated)	> 88.9 µM	24.9 µM	24.3 µM	29.2 µM	38.2 µM	24.9 µM	37.3 µM	15.2 µM	52.1 µM	40.6 µM	> 100 µM	28.8 µM	38 µM	28.1 µM	31.1 µM
Cc1ccc(S(=O)(=O)N2CCCCN(S(=O)(=O)c3ccc(C)cc3)Cc3ccccc3OCCOCCOc3c4cccc3Cc3cccc5c3OCCOCCOc3ccccc3CN(S(=O)(=O)c3ccc(C)cc3)CCCN(S(=O)(=O)c3ccc(C)cc3)Cc3ccccc3OCCOCCOc3c(cccc3C4)Cc3cccc(c3OCCOCCOc3ccccc3C2)C5)cc1	> 100 µM	> 100 µM	> 100 µM	> 100 µM	> 100 µM	> 100 µM	> 100 µM	> 100 µM	> 100 µM	> 100 µM	> 100 µM	> 100 µM	> 100 µM	> 100 µM	> 100 µM
[N-]=[N+]=Nc1ccc2c(c1)Sc1ccccc1N2CCCCCl	> 100 µM	> 100 µM	> 100 µM	> 100 µM	> 100 µM	> 100 µM	> 100 µM	> 100 µM	> 100 µM	76.9 µM	> 100 µM	> 100 µM	> 100 µM	> 100 µM	> 100 µM
C=C1C(=O)C23CC1C[C@H](OC(C)=O)C2C1(C)C(OC(C)=O)C[C@H](O)C(C)(C)[C@H]1C(O)[C@@H]3OC(C)=O (some centres not stated)	28.4 µM	8.25 µM	29.1 µM	36.9 µM	30.3 µM	19.4 µM	18.6 µM	3.34 µM	16.4 µM	29.7 µM	56.5 µM	6.14 µM	24.8 µM	24.5 µM	31.2 µM
CCCCc1c2c(nc3c1CCC/C3=C\c1ccccc1)C(=O)C(CN(C)C)CC2 (configuration not stated)	33.2 µM	33 µM	36.1 µM	54.7 µM	30.9 µM	15.7 µM	31.9 µM	30.1 µM	31.8 µM	39.4 µM	40.6 µM	31.5 µM	14 µM	33.7 µM	33.7 µM
CC(C)(C)N1NC1C1NN1C(C)(C)C (configuration not stated)	> 100 µM	> 100 µM	> 100 µM	> 100 µM	> 100 µM	> 100 µM	> 100 µM	> 100 µM	> 100 µM	> 100 µM	> 100 µM	> 100 µM	> 100 µM	> 100 µM	> 100 µM
COc1cc2cc(C(=O)N3CC(CCl)c4ccc(NCCN)cc43)[nH]c2c(OC)c1OC (configuration not stated)	0.339 µM	2.24 µM	6.1 µM	0.709 µM	0.881 µM	3.45 µM	1.9 µM	0.542 µM	1.17 µM	0.408 µM	1.16 µM		5.19 µM	0.637 µM	0.382 µM
Cc1cc2c(s1)C(=O)c1sccc1C2=O	3.17 µM	> 100 µM	3.32 µM	3.15 µM	0.422 µM	2.78 µM	2.89 µM	1.38 µM	> 25.5 µM	1.33 µM	4.47 µM	0.719 µM	3.02 µM	0.385 µM	2.29 µM
CC(=O)O[C@H]1C(=O)[C@@]2(C)[C@H]([C@H](OC(=O)C3CCCCC3)[C@]3(O)C[C@H](OC(=O)[C@H](O)[C@@H](NC(=O)C4CCCCC4)C4CCCCC4)C(C)=C1C3(C)C)[C@]1(OC(C)=O)CO[C@@H]1C[C@@H]2O	6.6 µM	8.78 µM	25 µM	0.27 µM	5.03 µM	4.36 µM	0.476 µM	0.136 µM	3.67 µM		19.2 µM	25 µM	3.4 µM	4.24 µM	6.23 µM
O=C1/C(=C\c2cccc(Oc3ccccc3)c2)SC(c2ccccc2)N1c1ccc(Cl)cc1 (configuration not stated)	> 100 µM	> 63.6 µM	> 100 µM	> 100 µM	> 100 µM	> 100 µM	> 100 µM	96.9 µM	41.9 µM	> 100 µM	> 100 µM	> 100 µM	> 100 µM	> 100 µM	> 100 µM
O=S1(=O)CCN(Cc2ccccc2)/C1=N\S(=O)(=O)c1ccc(Cl)cc1	73.5 µM	85.5 µM	28.5 µM	34.5 µM	33.5 µM	42.4 µM	> 100 µM	29.9 µM	79 µM	53.3 µM	> 100 µM	36.7 µM	39.5 µM	35.7 µM	32.5 µM
CN(C)CCO/N=C1/C=C2CC[C@H]3[C@@H]4CC[C@H](O)[C@@]4(C)CC[C@@H]3[C@@]2(C)CC1	33.7 µM	> 21.6 µM	68.6 µM	28.1 µM	60.2 µM	86 µM	44.4 µM	13.7 µM	> 74.9 µM	37.4 µM	44.4 µM	36.1 µM	97.9 µM	30.2 µM	28.2 µM
O=[N+]([O-])c1cccc2nccc(NCC(O)CO)c12 (configuration not stated)	19.3 µM	> 89.9 µM	27.6 µM	25.8 µM	54.7 µM	40 µM	45 µM	26 µM	61.2 µM	26 µM	74.9 µM	36.1 µM	96.1 µM	30 µM	37.2 µM
CNC(=O)c1n[nH][nH]c1=O	> 100 µM	> 100 µM	> 100 µM	> 100 µM	> 100 µM	> 100 µM	> 100 µM	> 100 µM	> 100 µM	> 100 µM	> 100 µM	> 100 µM	> 100 µM	> 100 µM	> 100 µM
O=C1CC2(CCC(O)(c3ccc(Cl)cc3)C(C(=O)c3ccc(Cl)cc3)C2)C(=O)c2ccccc2N1 (configuration not stated)	52.6 µM	26.6 µM	> 48.6 µM	> 100 µM	> 86.8 µM	> 100 µM	30.6 µM	> 100 µM	> 100 µM	> 100 µM	35.1 µM	> 100 µM	> 72.3 µM	62.6 µM	49.9 µM
c1ccc(CCN(Cc2nc3ccccc3[nH]2)Cc2nc3ccccc3[nH]2)cc1	30.6 µM	> 100 µM	> 77.8 µM	33.6 µM	23.1 µM	35.1 µM	31.8 µM	49.4 µM	11.6 µM	36.6 µM	70 µM	26 µM	40.8 µM	32.5 µM	26.2 µM
CCC(=O)COc1ccc(NC(NC(=O)C(C(F)(F)F)C(F)(F)F)(C(F)(F)F)C(F)(F)F)cc1	> 100 µM	61.8 µM	> 100 µM	> 100 µM	74.1 µM	> 100 µM	54.2 µM	35.5 µM	52.8 µM	95.5 µM	> 100 µM	> 100 µM	68.8 µM	> 100 µM	> 100 µM
CC1(C)C(=O)N=C(N)N1C(=O)OCc1ccccc1	> 100 µM	> 100 µM	> 100 µM	> 100 µM	> 100 µM	> 100 µM	> 100 µM	> 100 µM	> 100 µM	> 100 µM	> 100 µM	> 100 µM	> 100 µM	> 100 µM	> 100 µM
CC1NC(/C(=C/c2ccccc2O)NC(=O)c2ccccc2)OC1=O (configuration not stated)	> 50 µM	> 50 µM	> 50 µM	> 50 µM	> 50 µM	> 50 µM	> 50 µM	> 50 µM	> 50 µM	> 50 µM	> 50 µM	> 50 µM	> 50 µM	> 50 µM	> 50 µM
C=CCOCn1ccc(=O)[nH]c1=O	> 100 µM	> 100 µM	> 100 µM	> 100 µM	> 100 µM	> 100 µM	> 100 µM	> 100 µM	> 100 µM		> 100 µM	> 100 µM	> 100 µM	> 100 µM	> 100 µM
